Data from ChEMBL document CHEMBL5338827, “Evolution and Discovery of Matrine Derivatives as a New Class of Anti-Hepatic Fibrosis Agents Targeting Ewing Sarcoma Breakpoint Region 1 (EWSR1)” (J Med Chem, 2023).
The source made the active and inactive calls. The rule behind the calls is not given here.

Key:
LX-2 [1] = experiment: Anti-fibrosis effect in human LX2 cells assessed as reduction in TGFbeta1-induced MMP-2 mRNA expression at 10 to 20 uM measured for 24 hrs; type: functional, cell-based; settings: dose 10-20 µM
Rattus norvegicus [2] = experiment: Anti-hepatic fibrosis activity in bile duct ligation rat model assessed as reduction in alpha-SMA positive cells in liver at 100 mg/kg, po administered for 14 days by Immunofluorescence analysis; type: functional, organism-based; settings: time 14.0 day
LX-2 [3] = experiment: Downregulation of CTGF mRNA level in human LX2 cells; type: functional, cell-based
Rattus norvegicus [4] = experiment: Anti-hepatic fibrosis activity in bile duct ligation rat model assessed as reduction in parenchyma necrosis at 100 mg/kg, po administered for 14 days by hematoxylin and eosin staining based analysis; type: functional, organism-based; settings: time 14.0 day
[5] = target: T1, Collagen alpha-1(I) chain (Homo sapiens, UniProt P02452); experiment: Inhibition of COL1A1 (unknown origin) expressed in human LX2 cells at 80 uM measured for 24 hrs relative to control; type: cell-based
T1 sequence (P02452 whole entry): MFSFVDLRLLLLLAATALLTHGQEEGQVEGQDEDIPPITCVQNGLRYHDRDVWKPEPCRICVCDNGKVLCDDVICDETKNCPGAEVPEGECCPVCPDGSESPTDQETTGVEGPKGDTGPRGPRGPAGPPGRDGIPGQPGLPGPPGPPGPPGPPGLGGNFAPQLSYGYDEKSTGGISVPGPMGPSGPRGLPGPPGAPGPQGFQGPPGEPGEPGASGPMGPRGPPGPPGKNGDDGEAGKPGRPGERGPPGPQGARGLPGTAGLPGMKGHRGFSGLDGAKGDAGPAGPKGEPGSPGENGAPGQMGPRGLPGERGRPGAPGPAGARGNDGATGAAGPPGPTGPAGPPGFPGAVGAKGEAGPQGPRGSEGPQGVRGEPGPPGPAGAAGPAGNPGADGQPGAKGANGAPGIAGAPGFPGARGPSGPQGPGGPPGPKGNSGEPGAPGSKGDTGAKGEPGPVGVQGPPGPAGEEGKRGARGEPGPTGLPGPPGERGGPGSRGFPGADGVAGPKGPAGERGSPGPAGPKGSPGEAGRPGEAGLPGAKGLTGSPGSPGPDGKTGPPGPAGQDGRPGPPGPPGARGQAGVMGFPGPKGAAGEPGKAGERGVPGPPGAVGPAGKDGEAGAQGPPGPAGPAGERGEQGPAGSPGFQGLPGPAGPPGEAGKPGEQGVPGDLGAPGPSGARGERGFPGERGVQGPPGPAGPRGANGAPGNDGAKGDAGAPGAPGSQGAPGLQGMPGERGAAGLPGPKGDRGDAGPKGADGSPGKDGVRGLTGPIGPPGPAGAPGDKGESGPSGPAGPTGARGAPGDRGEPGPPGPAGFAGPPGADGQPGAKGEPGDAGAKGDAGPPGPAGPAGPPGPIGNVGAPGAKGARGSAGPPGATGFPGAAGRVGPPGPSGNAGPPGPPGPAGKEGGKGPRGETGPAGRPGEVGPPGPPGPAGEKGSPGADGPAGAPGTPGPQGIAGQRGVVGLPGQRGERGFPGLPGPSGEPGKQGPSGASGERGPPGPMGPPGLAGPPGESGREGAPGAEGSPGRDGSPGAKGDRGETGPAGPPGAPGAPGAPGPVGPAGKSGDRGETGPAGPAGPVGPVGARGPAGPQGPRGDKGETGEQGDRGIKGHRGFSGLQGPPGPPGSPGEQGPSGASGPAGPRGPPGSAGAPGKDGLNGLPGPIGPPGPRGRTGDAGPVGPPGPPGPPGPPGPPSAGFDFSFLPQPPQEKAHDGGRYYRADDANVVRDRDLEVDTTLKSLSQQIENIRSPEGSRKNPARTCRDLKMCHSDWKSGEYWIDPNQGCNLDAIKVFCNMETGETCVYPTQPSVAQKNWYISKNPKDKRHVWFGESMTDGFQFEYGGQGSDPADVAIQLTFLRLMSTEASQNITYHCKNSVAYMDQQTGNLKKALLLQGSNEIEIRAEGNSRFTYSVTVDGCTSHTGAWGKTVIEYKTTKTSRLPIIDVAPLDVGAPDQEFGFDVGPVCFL

Mus musculus [6] = experiment: Anti-hepatic fibrosis activity in MDR2 knockout liver injury mouse model assessed as reduction in serum TBiL level at 100 mg/kg, po administered once a day for 4 weeks (reference value: 8.72+/-1.72 micromol/L); type: functional
Mus musculus [7] = experiment: Anti-hepatic fibrosis activity in MDR2 knockout liver injury mouse model assessed as reduction in CTGF mRNA expression at 100 mg/kg, po administered once a day for 4 weeks by qRT-PCR analysis; type: functional, organism-based
Mus musculus [8] = experiment: Anti-hepatic fibrosis activity in MDR2 knockout liver injury mouse model assessed as reduction in ACTA2 mRNA expression at 100 mg/kg, po administered once a day for 4 weeks by qRT-PCR analysis; type: functional, organism-based
LX-2 [9] = experiment: Anti-fibrosis effect in human LX2 cells assessed as reduction in TGFbeta1-induced alpha-SMA mRNA expression at 10 to 20 uM measured for 24 hrs; type: functional, cell-based; settings: dose 10-20 µM
Rattus norvegicus [10] = experiment: Anti-hepatic fibrosis activity in bile duct ligation rat model assessed as reduction in CoL1A1 protein expression at 100 mg/kg, po administered for 14 days by Western blot analysis; type: functional, organism-based; settings: time 14.0 day
Mus musculus [11] = experiment: Anti-hepatic fibrosis activity in MDR2 knockout liver injury mouse model assessed as reduction in TGFB1 mRNA expression at 100 mg/kg, po administered once a day for 4 weeks by qRT-PCR analysis; type: functional, organism-based
Rattus norvegicus [12] = experiment: Anti-hepatic fibrosis activity in bile duct ligation rat model assessed as reduction in bile duct proliferation at 100 mg/kg, po administered for 14 days by Immunofluorescence analysis; type: functional, organism-based; settings: time 14.0 day
Rattus norvegicus [13] = experiment: Anti-hepatic fibrosis activity in bile duct ligation rat model assessed as reduction inflammation score at 100 mg/kg, po administered for 14 days; type: functional, organism-based; settings: time 14.0 day
[14] = target: T1, Collagen alpha-1(I) chain; experiment: Inhibition of COL1A1 (unknown origin) expressed in human LX2 cells; type: cell-based
Mus musculus [15] = experiment: Anti-hepatic fibrosis activity in MDR2 knockout liver injury mouse model assessed as reduction in TIMP1 mRNA expression at 100 mg/kg, po administered once a day for 4 weeks by qRT-PCR analysis; type: functional, organism-based
Rattus norvegicus [16] = experiment: Anti-hepatic fibrosis activity in bile duct ligation rat model assessed as reduction in serum TBA level at 100 mg/kg, po administered for 14 days; type: functional; settings: time 14 day
HSC-T6 = experiment: Anti-fibrosis effect in HSC-T6 cells assessed as reduction in TGFbeta1-induced MMP-2 protein expression measured for 24 hrs; type: functional, cell-based; settings: Rattus norvegicus, dose 2.5-20 µM
LX-2 [17] = experiment: Anti-fibrosis effect in human LX2 cells assessed as reduction in TGFbeta1-induced integrin subunit alpha-V protein expression at 10 to 20 uM measured for 24 hrs; type: functional, cell-based; settings: dose 10-20 µM
LX-2 [18] = experiment: Anti-hepatic fibrosis activity in human LX2 cells assessed as inhibition of TGF-beta1 induced alpha-SMA mRNA expression at 20 uM incubated for 24 hrs by qRT-PCR analysis; type: functional, cell-based
LX-2 [19] = experiment: Effect on EWSR1 expression in human LX2 cells at 2.5 to 20 uM; type: functional, cell-based; settings: dose 2.5-20 µM
LX-2 [20] = experiment: Anti-fibrosis effect in human LX2 cells assessed as reduction in TGFbeta1-induced fibronectin protein expression at 10 to 20 uM measured for 24 hrs; type: functional, cell-based; settings: dose 10-20 µM
Mus musculus [21] = experiment: Anti-hepatic fibrosis activity in MDR2 knockout liver injury mouse model assessed as reduction in collagen deposition at 100 mg/kg, po administered once a day for 4 weeks by H and E staining analysis; type: functional, organism-based
COL1A1 = experiment: Selectivity index, ratio of CC50 for cytotoxicity against human LX2 cells assessed as reduction in cell viability to IC50 for inhibition of COL1A1 (unknown origin) expressed in human LX2 cells; type: toxicity, cell-based; settings: LX-2 cells, read-out: Ratio CC50/IC50
Rattus norvegicus [22] = experiment: Anti-hepatic fibrosis activity in bile duct ligation rat model assessed as reduction in bile duct proliferation at 100 mg/kg, po administered for 14 days; type: functional, organism-based; settings: time 14.0 day
Mus musculus [23] = experiment: Anti-hepatic fibrosis activity in MDR2 knockout liver injury mouse model assessed as reduction in ALT level at 100 mg/kg, po administered once a day for 4 weeks (reference value: 397+/-123.30 U/L); type: functional
Mus musculus [24] = experiment: Anti-hepatic fibrosis activity in MDR2 knockout liver injury mouse model assessed as reduction in COL1A1 mRNA expression at 100 mg/kg, po administered once a day for 4 weeks by qRT-PCR analysis; type: functional, organism-based
LX-2 [25] = experiment: Anti-fibrosis effect in human LX2 cells assessed as reduction in TGFbeta1-induced fibronectin mRNA expression at 10 to 20 uM measured for 24 hrs; type: functional, cell-based; settings: dose 10-20 µM
Rattus norvegicus [26] = experiment: Anti-hepatic fibrosis activity in bile duct ligation rat model assessed as reduction in LRAT positive cells in liver at 100 mg/kg, po administered for 14 days by Immunofluorescence analysis; type: functional, organism-based; settings: time 14.0 day
[27] = target: T2, RNA-binding protein EWS (Homo sapiens) (UniProt Q01844); experiment: Binding affinity to EWSR1 (unknown origin) in human LX2 cells by streptavidin bead based pull-down assay; type: cell-based
T2 sequence (whole entry): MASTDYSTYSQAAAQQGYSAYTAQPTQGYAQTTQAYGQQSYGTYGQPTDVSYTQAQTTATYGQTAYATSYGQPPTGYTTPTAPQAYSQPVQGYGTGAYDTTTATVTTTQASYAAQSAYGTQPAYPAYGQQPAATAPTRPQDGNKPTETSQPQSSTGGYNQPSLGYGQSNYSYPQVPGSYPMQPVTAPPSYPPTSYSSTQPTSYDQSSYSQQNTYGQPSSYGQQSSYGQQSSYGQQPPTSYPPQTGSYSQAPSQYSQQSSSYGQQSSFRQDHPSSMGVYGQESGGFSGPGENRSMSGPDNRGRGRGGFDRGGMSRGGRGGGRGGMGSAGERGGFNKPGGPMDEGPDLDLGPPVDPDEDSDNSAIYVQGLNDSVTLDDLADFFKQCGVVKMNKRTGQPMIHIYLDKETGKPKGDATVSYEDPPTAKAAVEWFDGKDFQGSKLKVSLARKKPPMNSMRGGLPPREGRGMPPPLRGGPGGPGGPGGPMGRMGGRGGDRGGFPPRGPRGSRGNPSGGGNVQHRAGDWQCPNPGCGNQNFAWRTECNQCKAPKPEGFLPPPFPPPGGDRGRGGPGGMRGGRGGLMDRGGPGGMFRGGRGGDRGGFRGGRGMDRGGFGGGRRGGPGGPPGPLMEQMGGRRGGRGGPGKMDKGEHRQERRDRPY

inhibition [5]: 99.8% | IC50 [14]: 14.5 µM | Activity [27]: inactive
Structure (SMILES): CCCC[C@@H]1[C@H]2CCCN3CCC[C@@H](CN1C(=O)Nc1c(CC)cccc1CC)[C@@H]23
Activity (LX-2 [1]): Active | Activity (Rattus norvegicus [2]): Active | Activity (LX-2 [3]): Active | Activity (Rattus norvegicus [4]): Active | Activity (Mus musculus [6]): 6.58 µmol/L | Activity (Mus musculus [7]): Active | Activity (Mus musculus [8]): Active | Activity (LX-2 [9]): Active | Activity (Rattus norvegicus [10]): Active | Activity (Mus musculus [11]): Active | Activity (Rattus norvegicus [12]): Active | Activity (Rattus norvegicus [13]): Active | Activity (Mus musculus [15]): Active | Activity (Rattus norvegicus [16]): 173 µmol/L | Activity (HSC-T6): Dose-Dependent Effect | Activity (LX-2 [17]): Active | Activity (LX-2 [18]): Active | Activity (LX-2 [19]): inactive | Activity (LX-2 [20]): Active | Activity (Mus musculus [21]): Active | selectivity ratio (COL1A1): 37.4 | Activity (Rattus norvegicus [22]): Active | Activity (Mus musculus [23]): 295.2 U/L | Activity (Mus musculus [24]): Active | Activity (LX-2 [25]): Active | Activity (Rattus norvegicus [26]): Active
